Results reported in ChEMBL document CHEMBL5356947, “Mitochondria-targeted biotin-conjugated BODIPYs for cancer imaging and therapy” (RSC Med Chem, 2023).
One block for each compound: values may come before it.

Assays:
[1] = tested on: MDA-MB-231; assay: Photocytotoxicity against human MDA-MB-231 cells assessed as inhibition of cell growth incubated for 24 hrs by MTT assay; type: functional, cell-based; details: MDA-MB-231, 24 h
[2] = tested on: MDA-MB-231; assay: Cell cycle arrest in human MDA-MB-231 cells assessed as accumulation of cells at G2/M phase at 60 nM preincubated with compound for 15 mins followed by light irradiation and measured after 3 to 24 hrs by RNase A/PI staining based flow cytometric analysis (reference value: 12.9%); type: functional; details: time 195-1455 min
[3] = tested on: MCF7; assay: Photocytotoxicity against human MCF7 cells assessed as inhibition of cell growth incubated for 24 hrs by MTT assay; type: functional, cell-based; details: MCF7, 24 h
[4] = tested on: MDA-MB-231; assay: Induction of oxidative stress on human MDA-MB-231 cells assessed as increase in ROS population at 30 nM preincubated with compound for 24 hrs followed by 540 nm light irradiation for 1 hrs by CM-H2DCFDA staining based analysis (reference value: 2.5%); type: functional; details: time 25 hrs
[5] = tested on: MDA-MB-231; assay: Cell cycle arrest in human MDA-MB-231 cells assessed as accumulation of cells at G2/M phase at 30 nM preincubated with compound for 15 mins followed by light irradiation and measured after 3 to 24 hrs by RNase A/PI staining based flow cytometric analysis (reference value: 12.9%); type: functional; details: time 195-1455 min
[6] = Absorption property of the compound by UV-vis spectrophotometer; type: physicochemical
[7] = tested on: HT-29; assay: Photocytotoxicity against human HT-29 cells assessed as inhibition of cell growth incubated for 24 hrs by MTT assay; type: functional, cell-based; details: HT-29, 24 h
[8] = tested on: MDA-MB-231; assay: Cell cycle arrest in human MDA-MB-231 cells assessed as accumulation of cells at S phase incubated for 24 hrs by RNase A/PI staining based flow cytometric analysis relative to control; type: functional
[9] = tested on: MDA-MB-231; assay: Induction of apoptosis in human MDA-MB-231 cells assessed as late apoptotic cells at 60 nM preincubated with compound for 24 hrs followed by 540 nm light irradiation for 1 hrs by Annexin V-FITC/PI staining based flow cytometric analysis (reference value: 17.1%); type: functional; details: time 25 hrs
[10] = tested on: MDA-MB-231; assay: Induction of oxidative stress on human MDA-MB-231 cells assessed as increase in ROS population at 60 nM preincubated with compound for 24 hrs followed by 540 nm light irradiation for 1 hrs by CM-H2DCFDA staining based analysis (reference value: 2.5%); type: functional; details: time 25 hrs
[11] = tested on: MDA-MB-231; assay: Cell cycle arrest in human MDA-MB-231 cells assessed as accumulation of cells at G2/M phase incubated for 24 hrs by RNase A/PI staining based flow cytometric analysis relative to control; type: functional
[12] = tested on: HCT-116; assay: Photocytotoxicity against human HCT-116 cells assessed as inhibition of cell growth incubated for 24 hrs by MTT assay; type: functional, cell-based; details: HCT-116, 24 h
[13] = tested on: MDA-MB-231; assay: Cell cycle arrest in human MDA-MB-231 cells assessed as accumulation of cells at S phase at 30 nM preincubated with compound for 15 mins followed by light irradiation and measured after 3 to 24 hrs by RNase A/PI staining based flow cytometric analysis (reference value: 16.4%); type: functional; details: time 195-1455 min
[14] = tested on: MDA-MB-231; assay: Induction of apoptosis in human MDA-MB-231 cells assessed as early apoptotic cells at 30 nM incubated for 24 hrs under dark condition by Annexin V-FITC/PI staining based flow cytometric analysis relative to control; type: functional
[15] = tested on: MDA-MB-231; assay: Cell cycle arrest in human MDA-MB-231 cells assessed as accumulation of cells at G1 phase at 60 nM preincubated with compound for 15 mins followed by light irradiation and measured after 3 to 24 hrs by RNase A/PI staining based flow cytometric analysis (reference value: 65.7%); type: functional; details: time 195-1455 min
[16] = Absorption property of the compound assessed as decay lifetime; type: physicochemical
[17] = Fluorescence property of the compound assessed as fluorescence quantum yield in EtOH; type: physicochemical
[18] = tested on: MDA-MB-231; assay: Cell cycle arrest in human MDA-MB-231 cells assessed as accumulation of cells at G1 phase at 30 nM preincubated with compound for 15 mins followed by light irradiation and measured after 3 to 24 hrs by RNase A/PI staining based flow cytometric analysis (reference value: 65.7%); type: functional; details: time 195-1455 min
[19] = Emission property of the compound by fluorescence spectrophotometer analysis; type: physicochemical
[20] = tested on: MDA-MB-231; assay: Induction of apoptosis in human MDA-MB-231 cells assessed as necrotic cells at 30 nM incubated for 24 hrs under dark condition by Annexin V-FITC/PI staining based flow cytometric analysis relative to control; type: functional
[21] = tested on: MDA-MB-231; assay: Induction of apoptosis in human MDA-MB-231 cells assessed as late apoptotic cells at 30 nM preincubated with compound for 24 hrs followed by 540 nm light irradiation for 1 hrs by Annexin V-FITC/PI staining based flow cytometric analysis (reference value: 17.1%); type: functional; details: time 25 hrs
[22] = tested on: MDA-MB-231; assay: Induction of oxidative stress on human MDA-MB-231 cells assessed as increase in ROS population incubated for 24 hrs under dark condition by CM-H2DCFDA staining based analysis relative to control; type: functional
[23] = Absorption property of the compound assessed as molar extinction co-effecient by UV-vis spectrophotometer; type: physicochemical
[24] = tested on: MDA-MB-231; assay: Induction of apoptosis in human MDA-MB-231 cells assessed as late apoptotic cells at 30 nM incubated for 24 hrs under dark condition by Annexin V-FITC/PI staining based flow cytometric analysis relative to control; type: functional
[25] = tested on: MDA-MB-231; assay: Cell cycle arrest in human MDA-MB-231 cells assessed as accumulation of cells at S phase at 60 nM preincubated with compound for 15 mins followed by light irradiation and measured after 3 to 24 hrs by RNase A/PI staining based flow cytometric analysis (reference value: 16.4%); type: functional; details: time 195-1455 min
[26] = tested on: MDA-MB-231; assay: Induction of apoptosis in human MDA-MB-231 cells assessed as early apoptotic cells at 30 nM preincubated with compound for 24 hrs followed by 540 nm light irradiation for 1 hrs by Annexin V-FITC/PI staining based flow cytometric analysis (reference value: 19.2%); type: functional; details: time 25 hrs
[27] = Absorption property of the compound assessed as triplet quantum yield by UV-vis spectrophotometer; type: physicochemical
[28] = tested on: MDA-MB-231; assay: Induction of apoptosis in human MDA-MB-231 cells assessed as necrotic cells at 60 nM preincubated with compound for 24 hrs followed by 540 nm light irradiation for 1 hrs by Annexin V-FITC/PI staining based flow cytometric analysis (reference value: 2.7%); type: functional; details: time 25 hrs
[29] = Photosensitizing ability of the compound in MeOH assessed as singlet oxygen generation at 408 nm measured upto 120 sec by DPBF based assay; type: functional
[30] = tested on: MDA-MB-231; assay: Cell cycle arrest in human MDA-MB-231 cells assessed as accumulation of cells at G1 phase incubated for 24 hrs by RNase A/PI staining based flow cytometric analysis relative to control; type: functional
[31] = Drug localization in mitochondria of human MDA-MB-231 cells incubated for 1 hrs by Mitotracker deep red/Hoechst staining based confocal microscopic analysis; type: ADME; details: mda-mb-231, 1 h
[32] = tested on: MDA-MB-231; assay: Induction of apoptosis in human MDA-MB-231 cells assessed as early apoptotic cells at 60 nM preincubated with compound for 24 hrs followed by 540 nm light irradiation for 1 hrs by Annexin V-FITC/PI staining based flow cytometric analysis (reference value: 19.2%); type: functional; details: time 25 hrs
[33] = tested on: MDA-MB-231; assay: Induction of apoptosis in human MDA-MB-231 cells assessed as necrotic cells at 30 nM preincubated with compound for 24 hrs followed by 540 nm light irradiation for 1 hrs by Annexin V-FITC/PI staining based flow cytometric analysis (reference value: 2.7%); type: functional; details: time 25 hrs
[34] = Photocytotoxicity against human MCF-10A cells assessed as inhibition of cell growth incubated for 24 hrs by MTT assay; type: toxicity, cell-based

SMILES: C#CCOc1ccc(C2=C3C(C)=C(I)C(C)=[N+]3[B-](F)(F)n3c(C)c(I)c(C)c32)cc1
- IC50 [1]: 25.2 nM

- Activity [6]: 533 nm
- Time [16]: 2.5 microsec
- Activity [17]: 0.039
- Activity [19]: 549 nm
- Activity [23]: 91000 M⁻¹ cm⁻¹
- Activity [27]: 0.44
- Drug uptake [31]: Active
SMILES: CC1=C(I)C(C)=[N+]2C1=C(c1ccc(OCc3cn(CCOCCOCCOCCOCCNC(=O)CCCCC4SCC5NC(=O)NC54)nn3)cc1)c1c(C)c(I)c(C)n1[B-]2(F)F (stereo not given)
- Activity [2]: 22%
- IC50 [3]: 54.1 nM
- Activity [4]: 92.3%
- Activity [5]: 19.2%
- IC50 [7]: 88.2 nM
- Activity [8]: 18.1%
- Activity [9]: 34.1%
- Activity [10]: 92.4%
- Activity [11]: 13.3%
- IC50 [12]: 74.9 nM
- IC50 [1]: 52.2 nM
- Activity [13]: 14.6%
- Activity [14]: 5.6%
- Activity [15]: 58.7%
- Activity [18]: 63%
- Activity [20]: 5.8%
- Activity [21]: 11.2%
- Activity [22]: 5.9%
- Activity [24]: 11.5%
- Activity [25]: 15.5%
- Activity [26]: 10.5%
- Activity [28]: 40.1%
- Activity [29]: 0.34
- Activity [30]: 63.3%
- Activity [32]: 4.5%
- Activity [33]: 12.1%
- IC50 at 24 h [34]: 177 nM
